Data as given in patent US20260035339A1, “TETRAHYDRONAPHTHALENE DERIVATIVE” (ATRANSEN PHARMA LTD., priority 2022, published 2026).
pIC50: −log10 of the molar value.

Key:
[1] = test system: Mouse colorectal cancer-derived CT26 cells; assay: Cell proliferation inhibitory effect using mouse colorectal cancer cells (CCK-8 assay); assay type: cell-based; conditions: 72 hours compound treatment, read-out: Evaluation of IC50 (proliferation inhibition rate of 50%)
Procedure: Mouse colorectal cancer-derived CT26 cells were adjusted to […], seeded in a 96-well plate at 1000 cells/well, and cultured in a 10% fetal bovine serum-added RPMI 1640 medium at 5% CO2 and 37° C. The culture medium was changed 24 hours after the start of the culture, and the medium containing the compound of Example was replaced to examine the action of the compound on cell proliferation. As the compound, a concentration of 0.01, 0.03, 0.1, 0.3, 1, 3, 10, or 30 μM was used. As a control, the cells were cultured in a medium containing no compound. The number of cells was evaluated by CCK-8 assay (Cell Counting Kit-8, DOJINDO LABORATORIES) 72 hours after the start of the compound treatment, and the compound concentration (IC50 value) giving a proliferation inhibition rate of 50% as compared with the control was calculated.

[2] = molecular target: T1, human LAT1 (Homo sapiens, UniProt Q01650); assay: [14C]L-leucine uptake inhibition test using human-LAT1 stably expressing HEK293 cell line; assay type: cell-based; set-up: having full-length cDNA of human LAT1 or LAT2 inserted under a promoter of CMV; expressed in transfected cells; key to Assay Data: degree of [14C]L-leucine uptake inhibition compared with BCH: a test compound having a higher inhibitory effect than BCH is denoted by A; a test compound having the same inhibitory effect as BCH is denoted by B; a test compound having a lower inhibitory effect than BCH is denoted by C; conditions: for Assay Data: degree of [14C]L-leucine uptake inhibition compared with BCH: compound (racemic form) and BCH at 0.1, 1.0, 10 μM, 1 μM [14C]L-leucine, 1 minute, Na+-free HBSS; for LAT1 inhibitory effect, compounds singled out (in words): same test as Table 1
Description: HEK293 cells stably expressing human LAT1 and LAT2 were produced, respectively.
A shuttle vector DNA (LAT1: pcDNA3.1(+) -hLAT1, LAT2: pcDNA3.1(+) -hLAT2; expression vector pcDNA3.1 (+) was produced by Invitrogen Corp.) having ampicillin and neomycin resistance markers and having full-length cDNA of human LAT1 or LAT2 inserted under a promoter of CMV (cytomegalovirus) was constructed. This vector was transfected into the HEK293 cells by a method using Lipofectamine (registered trademark) 2000 (Invitrogen Corp.) according to the manufacturer's instructions. Thereafter, stably expressing cell clones of transgene were selected by a limiting dilution method in the presence of 0.9 mg/mL of Geneticin (registered trademark), and among the obtained cell clones, cell clones having a high uptake of [^14C]L-leucine and maintaining stable expression even after 10 passages were obtained. These cells were used for evaluating affinity and selectivity for LAT1 and LAT2.
1-1. It has been confirmed that LAT1 is responsible for L-leucine uptake in the absence of sodium ions in the human-LAT1 stably expressing HEK293 cell line. The human-LAT1 stably expressing HEK293 cell line was seeded in a 24-well plate at 1×10^5 Cell/Well, and the [^14C]L-leucine uptake inhibition test using the compound was performed after 48 hours. After the medium was removed and the cells were washed with Hank's balanced salt solution (Na^+-free HBSS) not containing sodium ions, the cells were cultured in Na^+-free HBSS for 10 minutes. Thereafter, 1 μM of [^14C]L-leucine was taken up in Na^+-free HBSS in the presence of a test compound (0.1, 1.0, 10, 0 μM in each case), which is a racemic form, for 1 minute, and then the cells were washed three times with ice-cooled Na^+-free HBSS. To the well, 500 μL of 1 M NaOH was added, and after 30 minutes, the cells were lysed, and the cell lysate was collected. The amount of [^14C]L-leucine in the cell lysate was determined using a liquid scintillator. The amount of protein in the cell lysate was measured using BCA Assay Kit (Thermofisher Scientific), and the uptake amount of [^14C]L-leucine per 1 mg of protein in the cell per minute was calculated.
The degree of LAT1 inhibition of the compound obtained in the present invention was compared with BCH (BCH, 2-aminobicyclo-(2,2,1)-heptane-2-carboxylic acid), which is an existing LAT1 inhibitor. In the [^14C]L-leucine uptake inhibition test described above, the degrees of inhibition of [^14C]L-leucine uptake inhibition using the compound (racemic form) obtained in Examples and BCH (0.1, 1.0, 10, 0 μM for both) were compared. […] In the table, a test compound having a higher inhibitory effect than BCH is denoted by A, a test compound having the same inhibitory effect as BCH is denoted by B, and a test compound having a lower inhibitory effect than BCH is denoted by C.

[3] = molecular target: T1, human LAT1; assay: Leucine uptake persistence inhibitory effect after compound removal in human-LAT1 highly expressing cell line; assay type: cell-based; conditions: 20 μM compound for 30 minutes, removed, uptake measured 30 minutes later
Procedure: The uptake of [^14C]L-leucine remaining after the compound of the present invention was caused to act in advance and removed in the human-LAT1 highly expressing cell line was examined. In the same manner as in the uptake inhibition test, the cell line was seeded in a 24-well plate, and an MEM (Minimum Essential Medium) medium containing 20 μM of the compound (racemic form) was added to the wells and allowed to act for 30 minutes. An MEM medium containing no compound was used as a control. After the compound was caused to act, the cells were washed 3 times with the MEM medium and cultured in the MEM medium for an additional 30 minutes. Thereafter, washing was performed 3 times with Na^+Free-HBSS, and 1 μM of [^14C]L-leucine dissolved in Na^+Free-HBSS was taken up for 1 minute. The cells were washed 3 times with ice-cooled Na^+Free-HBSS, and the amount of [^14C]L-leucine taken up in the cells was determined with a liquid scintillator. In the same manner as in other tests, the amount of protein in the cell fluid was measured, and the uptake amount of [^14C]L-leucine per 1 mg of protein in the cell fluid per minute was determined.

[4] = test system: Mouse triple negative breast cancer cells 4T1 and mouse colorectal cancer cells CT26; assay: BNCT-enhancing effect using mouse allograft tumor model; assay type: in vivo, BALB/c mice; conditions: neutron rays 5 MW for 30 minutes
Procedure: Mouse triple negative breast cancer cells 4T1 and mouse colorectal cancer cells CT26 were plate-cultured and then transplanted subcutaneously into the lower limbs of BALB/c mice. After 1 week, 400 mg/kg of L-[10B]BPA or a solvent as a control was intravenously administered through the tail vein. In Group 1, the compound of Example 1-45 was administered intravenously at a dose of 25 mg/kg after 1 hour and 1.5 hours from the administration of L-[10B]BPA. In Group 2, the solvent was administered instead of L-[10B]BPA, and after 1 hour and 1.5 hours, the compound of Example 1-45 obtained in the present invention was administered intravenously at a dose of 25 mg/kg. In Group 3, the solvent was administered intravenously instead of the compound of Example 1-45 after 1 hour and 1.5 hours from the administration of L-[10B]BPA. For Groups 1, 2, and 3, the lower limbs were irradiated with neutron rays under anesthesia after 2.5 hours from L-[10B]BPA administration or solvent administration as the control (5 MW for 30 minutes). The tumors were excised after 11 days from irradiation and the volumes thereof were compared.

[5] = test system: Human breast cancer cells MCF7; assay: BNCT-enhancing effect by L-BPA confinement using cultured cells (colony formation after neutron irradiation); assay type: cell-based; conditions: MCF7 loaded with 100 μM L-[10B]BPA, not treated with Example 1-1; neutron rays 5 MW for 4 minutes
Procedure: Human breast cancer cells MCF7 were plate-cultured in an RPMI medium for 48 hours, then replaced with an RPMI medium containing 100 μM of L-[10B]BPA, and cultured for 15 minutes to allow the L-[10B]BPA to be taken up in the cells. After washing with HBSS, the cells were cultured in an RPMI medium for 60 minutes, and after further washing with HBSS, the cells were peeled off and stored in HBSS at room temperature for 1.5 hours ((−) in FIG. 3A). L-BPA was taken up in the cells, washed with HBSS and then cultured in an RPMI medium containing the compound of Example 1-1 (10 μM) obtained in the present invention for 60 minutes, and after further washing with HBSS, the cells were peeled off and stored in HBSS at room temperature for 1.5 hours ((+) in FIG. 3A). The cells were cultured in an RPMI medium containing no L-[10B]BPA for 15 minutes, and after washing with HBSS, the cells were peeled off and stored in HBSS at room temperature for 1.5 hours ((No BPA Hot control) in FIG. 3A). These three cell samples were irradiated with neutron rays (5 MW for 4 minutes). After irradiation, in order to measure viable cells, the cells were plate-cultured and the number of colonies generated after 2 weeks was measured. The number of viable cells was evaluated as surviving fraction (%) (FIG. 3A).

T1 sequence (Q01650 whole entry): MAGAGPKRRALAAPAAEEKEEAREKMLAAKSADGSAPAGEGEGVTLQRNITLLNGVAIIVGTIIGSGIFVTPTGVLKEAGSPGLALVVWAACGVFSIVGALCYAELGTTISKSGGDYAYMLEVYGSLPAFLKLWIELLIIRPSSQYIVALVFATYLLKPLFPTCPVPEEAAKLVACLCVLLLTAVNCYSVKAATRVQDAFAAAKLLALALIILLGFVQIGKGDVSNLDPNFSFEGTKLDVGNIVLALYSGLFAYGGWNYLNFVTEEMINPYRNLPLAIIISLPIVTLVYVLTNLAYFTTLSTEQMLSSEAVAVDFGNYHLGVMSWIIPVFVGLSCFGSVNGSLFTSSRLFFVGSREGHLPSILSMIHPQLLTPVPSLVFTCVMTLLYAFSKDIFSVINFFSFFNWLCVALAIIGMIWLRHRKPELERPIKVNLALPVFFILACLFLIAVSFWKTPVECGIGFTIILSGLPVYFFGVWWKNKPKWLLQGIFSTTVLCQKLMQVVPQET
T1 sequence (P08195 102-630 partner): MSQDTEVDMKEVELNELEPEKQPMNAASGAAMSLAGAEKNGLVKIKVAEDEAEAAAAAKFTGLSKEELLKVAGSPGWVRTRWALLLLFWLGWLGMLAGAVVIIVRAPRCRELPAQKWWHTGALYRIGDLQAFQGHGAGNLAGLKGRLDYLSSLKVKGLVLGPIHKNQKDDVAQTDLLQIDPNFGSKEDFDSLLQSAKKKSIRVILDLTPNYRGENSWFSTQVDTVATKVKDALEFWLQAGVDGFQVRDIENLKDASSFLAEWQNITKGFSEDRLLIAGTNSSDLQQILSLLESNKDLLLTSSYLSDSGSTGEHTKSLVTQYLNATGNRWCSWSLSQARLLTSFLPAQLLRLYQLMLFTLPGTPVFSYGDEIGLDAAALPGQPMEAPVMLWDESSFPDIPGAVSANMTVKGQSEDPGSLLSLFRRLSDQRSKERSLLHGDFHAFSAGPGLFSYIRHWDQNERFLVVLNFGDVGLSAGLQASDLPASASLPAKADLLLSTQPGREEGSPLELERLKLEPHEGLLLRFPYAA

Structure (SMILES)	pIC50 [1]	Assay Data: degree of [14C]L-leucine uptake inhibition compared with BCH [2]	sustained LAT1 inhibitory effect as compared with Example 1-1 [3]	LAT1 inhibitory effect, compounds singled out (in words) [2]	antitumor effect by neutron irradiation (tumor volume 11 days after irradiation) ([4]; Group 1: 400 mg/kg L-[10B]BPA i.v., then compound 25 mg/kg i.v. after 1 and 1.5 hours)	cell death caused by neutron irradiation, L-[10B]BPA without compound treatment [5]	BNCT effect of L-[10B]BPA without compound (tumor volume 11 days after irradiation) ([4]; Group 3: 400 mg/kg L-[10B]BPA i.v., solvent instead of Example 1-45)
Cc1cccc(-c2ccccc2Oc2ccc3c(c2)CC(N)(C(=O)O)CC3)c1.Cl (stereo not drawn) [Example 1-43, 2-carboxy-7-((3′-methyl-[1,1′-biphenyl]-2-yl)oxy)-1,2,3,4-tetrahydronaphthalene-2-aminium chloride]	≥ 6.05	A	more remarkable effect				
Cl.NC1(C(=O)O)CCc2ccc(Oc3ccccc3-c3cccc(F)c3F)cc2C1 (stereo not drawn) [Example 1-45, 2-Carboxy-7-((2′,3′-difluoro-[1,1′-biphenyl]-2-yl)oxy)-1,2,3,4-tetrahydronaphthalene-2-aminium chloride]	≥ 6.05	A	more remarkable effect	particularly remarkable effects	large antitumor effect		
Cl.NC1(C(=O)O)CCc2ccc(Oc3ccccc3-c3cccc(Cl)c3)cc2C1 (stereo not drawn) [Example 1-33, 2-carboxy-7-((3′-chloro-[1,1′-biphenyl]-2-yl)oxy)-1,2,3,4-tetrahydronaphthalene-2-aminium chloride]	≥ 6.05	A	more remarkable effect				
Cc1cccc(-c2ccccc2Oc2ccc3c(c2)CC(N)(C(=O)O)CC3)c1F.Cl (stereo not drawn) [Example 1-55, 2-Carboxy-7-((2′-fluoro-3′-methyl-[1,1′-biphenyl]-2-yl)oxy)-1,2,3,4-tetrahydronaphthalene-2-aminium chloride]	≥ 6.05	A	more remarkable effect	particularly remarkable effects			
N[C@@H](Cc1ccc(B(O)O)cc1)C(=O)O [L-[10B]BPA, L-boronophenylalanine, reference compound]						about No BPA Hot control	no BNCT effect was obtained
Cl.NC1(C(=O)O)CCc2ccc(Oc3ccccc3-c3cc(F)cc(F)c3F)cc2C1 (stereo not drawn) [Example 1-63, 2-carboxy-7-((2′,3′,5′-trifluoro-[1,1′-biphenyl]-2-yl)oxy)-1,2,3,4-tetrahydronaphthalene-2-aminium chloride]	≥ 6.05	A	more remarkable effect	particularly remarkable effects			

The next lines start with results.

pIC50 [1]	Assay Data: degree of [14C]L-leucine uptake inhibition compared with BCH [2]	sustained LAT1 inhibitory effect as compared with Example 1-1 [3]	LAT1 inhibitory effect, compounds singled out (in words) [2]	Structure (SMILES)	antitumor effect by neutron irradiation (tumor volume 11 days after irradiation) ([4]; Group 1: 400 mg/kg L-[10B]BPA i.v., then compound 25 mg/kg i.v. after 1 and 1.5 hours)	cell death caused by neutron irradiation, L-[10B]BPA without compound treatment [5]	BNCT effect of L-[10B]BPA without compound (tumor volume 11 days after irradiation) ([4]; Group 3: 400 mg/kg L-[10B]BPA i.v., solvent instead of Example 1-45)
≥ 6.05	A	more remarkable effect		Cl.NC1(C(=O)O)CCc2ccc(Oc3ccccc3-c3ccc(F)c(Cl)c3)cc2C1 (stereo not drawn) [Example 1-48, 2-carboxy-7-((3′-Chloro-4′-fluoro-[1,1′-biphenyl]-2-yl)oxy)-1,2,3,4-tetrahydronaphthalene-2-aminium chloride]			
≥ 6.05	A	more remarkable effect		C=Cc1cccc(-c2ccccc2Oc2ccc3c(c2)CC(N)(C(=O)O)CC3)c1.Cl (stereo not drawn) [Example 1-62, 2-carboxy-7-((3′-vinyl-[1,1′-biphenyl]-2-yl)oxy)-1,2,3,4-tetrahydronaphthalene-2-aminium chloride]			
≥ 6.05	A	more remarkable effect		Cl.NC1(C(=O)O)CCc2ccc(Oc3ccccc3-c3ccc(F)cc3F)cc2C1 (stereo not drawn) [Example 1-59, 2-Carboxy-7-((2′,4′-difluoro-[1,1′-biphenyl]-2-yl)oxy)-1,2,3,4-tetrahydronaphthalene-2-aminium chloride]			
